{"source": "patent US20140030260A1", "about": "“METHODS AND COMPOSITIONS TO ELIMINATE CHRONIC LYMPHOCYTIC LEUKEMIA AND OTHER HEMATOLOGIC MALIGNANT CELLS IN STROMAL MICROENVIRONMENT FOR CANCER THERAPY” (BOARD OF REGENTS, THE UNIVERSITY OF TEXAS SYSTEM, priority 2010, published 2014)", "key": {"[1]": {"test_system": "primary leukemia cells (CLL)", "assay": "Viability of primary CLL cells cultured alone or with stromal cells, flow cytometry after annexin-V/PI double-staining", "conditions": "for effect on the toxicity of selecticine in CLL cells: patient #17, co-culture with various types of marrow cells, 20 μM selecticine", "protocol": "The cells were then treated with 50 μM selecticine for 2 days, and cell viability was measured by flow cytometry analysis after double-staining with annexin-V and PI.\nThe cells were then treated with 50 or 100 μM selecticine for 2 days. Cell viability was then measured by flow cytometry analysis after double-staining with annexin-V and PI.\nThe cells were then treated with 50 μM selecticine for 2 days. Cell viability was then measured by flow cytometry analysis after double-staining with annexin-V and PI.\nCell viability was then measured by flow cytometry analysis after double-staining with annexin-V and PI.\nCLL cells isolated from two different patients were treated as follow: (1) Control (CLL alone); (2) Selenocystine mixed with the conditioned medium (CM) of stromal cell culture; (3) Medium from stromal cell culture incubated with selenocystine. After an additional 48-h incubation with CLL cells (without stramal), cell viability was measured by flow cytometry analysis after double-staining with annexin-V and PI.\nCLL cells (without stromal) were then incubated for 72 hours with: (1) control medium; (2) 200 μM 2-mercaptoethanol (2ME) alone; (3) 50 μM selenocystine alone; (4) Selecticine-02 (50 μM selenocystine+200 μM 2-mercaptoethanol pre-mixed overnight). Cell viability was measured by flow cytometry analysis after double-staining with annexin-V and PI.\nThe experimental conditions were the same as FIG. 14, except the selenocystine:2ME ration was 5:2 instead of 1:4.\nThe cells were then treated with 50 mM selenocystine for 2 days."}, "[2]": {"test_system": "CLL cells", "assay": "ROS, cellular thiol and glutathione in CLL cells (mitosox Red, CMFDA)", "format": "cell-based, human", "conditions": "in the presence of stromal cells (HS-5); 50 μM", "source_text": "Mitochondrial ROS levels were stained by mitosox Red (A) and cellular thiol was stained by CMFDA (B)."}, "[3]": {"test_system": "EBV-immortalized normal lymphocytes", "assay": "Viability of immortalized normal lymphocytes with or without stromal cells, annexin-V/PI flow cytometry", "format": "cell-based", "conditions": "not further specified", "source_text": "The numbers indicate % of viable cells."}}, "note": "“Also recorded” adds a separate entry of the source."}
{"smiles": "Nc1nc(F)nc2c1ncn2[C@@H]1O[C@H](CO)[C@@H](O)[C@@H]1O", "note": "[F-ara-A, reference compound]", "values": [{"measurement": "effect of stromal cells on the drug's cytotoxicity in CLL cells", "setting": "[1]; patient #10, different types of stromal cells, 50 μM selecticine, 20 μM F-ara-A or 20 μM oxaliplatin, 2 days", "value": "protected"}]}
{"smiles": "CCCCS(=N)(=O)CCC(N)C(=O)O", "note": "(stereo not drawn) [BSO, reference compound]", "values": [{"measurement": "effect on the toxicity of selecticine in CLL cells", "setting": "[1]", "value": "enhanced"}]}
{"smiles": "CC(=O)N[C@@H](CS)C(=O)O", "note": "[NAC, reference compound]", "values": [{"measurement": "effect on the toxicity of selecticine in CLL cells", "setting": "[1]", "value": "protected"}]}
{"smiles": "NC(C[Se][Se]CC(N)C(=O)O)C(=O)O", "note": "(stereo not drawn) [selenocystine, 2-amino-3-(2-amino-2-carboxy-ethyl)selanylselanyl-propanoic acid]", "values": [{"measurement": "ROS generation in CLL cells (mitochondrial ROS, mitosox Red)", "setting": "[2]", "value": "significant increase in ROS production"}, {"measurement": "cytotoxic effect on leukemia (CLL) cells", "setting": "[1]; cultured alone / in the absence of stromal cells", "value": "only moderate cytotoxic effect"}, {"measurement": "killing of primary CLL cells (cell viability)", "setting": "[1]; in the presence of bone marrow stromal cells (HS-5), 50 μM, 2 days", "value": "highly potent cytotoxic effect; also recorded: considerable leukemia cell death"}, {"measurement": "toxicity to CLL cells after conversion by stromal factor in stromal conditioned medium", "setting": "[1]; mixed or incubated with stromal cell culture medium, 48-h incubation with CLL cells without stromal cells", "value": "highly toxic"}]}
{"smiles": "NC(C[SeH])C(=O)O", "note": "(stereo not drawn) [selenocysteine, 3-selenyl-2-aminopropanoic acid]", "values": [{"measurement": "toxicity to normal cells", "setting": "[3]", "value": "low toxicity"}, {"measurement": "toxicity to CLL leukemia cells of the active compound formed by stromal cells", "setting": "[1]; mechanistic studies", "value": "highly toxic"}]}
